In this assay the test system is stimulated primary human T cells. As to the kind of experiment: T cell proliferation assay (rescue of proliferation in presence of ATP, CFSE dilution). To be noted: 100 uM ATP. It counts as cell-based.

The text below walks through data of patent publication US20230203058A1, “MACROCYCLIC DIAMINE DERIVATIVES AS ENT INHIBITORS FOR THE TREATMENT OF CANCERS, AND COMBINATION THEREOF WITH ADENOSINE RECEPTOR ANTAGONISTS” (ITEOS BELGIUM SA, priority 2020, published 2023).

Molecules are shown by their SMILES. Where two headings read alike, the source gives them in different places.

As to `COc1cc(C(=O)O[C@H]2CCCOc3cc(cc(OC)c3OC)C(=O)OCCCN3CCCN(CC2)CC3)cc(OC)c1OC` [Compound 2, (12S)-74,75-dimethoxy-6-oxo-5,8-dioxa-1(1,4)-diazepana-7(1,3)-benzenacyclotetradecaphane-12-yl 3,4,5-trimethoxybenzoate], the IC50 is, setting by setting: (Condition A: X-VIVO15, read-out: T Cell proliferation (Condition A) IC50) 20 to 500 nM; (Condition B: X-VIVO15, 2% HSA and 0,1% AAG, read-out: (2) T Cell proliferation (Condition B) IC50) 20 to 500 nM.
